{"source": "patent US20210392889A1", "about": "“COMPOSITIONS COMPRISING PYRIDINE CARBOXYLATE HERBICIDES WITH PDS INHIBITOR HERBICIDES” (Corteva Agriscience LLC, priority 2018, published 2021)", "experiment_in_all_cases": "Greenhouse postemergence herbicidal effect, visual injury after 20-22 d", "type_in_all_cases": "in vivo", "key": {"[1]": {"system": "Russian thistle (SASKR, Salsola kali)", "settings": "for visual injury: Table 1", "description": "(§1) Seeds of the desired test plant species were planted in a 90:10% v/v (volume/volume) mixture of PRO-MIX® BX (Premier Tech Horticulture, Quakertown, Pa., USA) and PROFILE® GREENS GRADE™ (Profile Products LLC, Buffalo Grove, Ill., USA) planting mixture, which typically has a pH of 5.2 to 6.2 and an organic matter content of at least 50 percent, in plastic pots with a surface area of 103.2 square centimeters (cm^2). In some aspects, to ensure good germination and healthy plants, a fungicide treatment and/or other chemical or physical treatment was applied. The plants were grown for 7-36 days (d) in a greenhouse with an approximate 14-hour (h) photoperiod which was maintained at about 23° C. during the day and 22° C. during the night. Nutrients and water were added on a regular basis and supplemental lighting was provided with overhead metal halide 1000-Watt lamps as necessary. The plants were employed for testing when they reached the second or third true leaf stage.\n(§2) Emulsifiable concentrates of each of each pyridine carboxylate herbicide (Compound A or Compound B) were prepared at 100 grams acid equivalent per liter (g ae/L). The emulsifiable concentrates also included a safener, cloquintocet-mexyl, at 120 grams active ingredient per liter (g ai/L). An aliquot of each emulsifiable concentrate was placed in a 25 mL glass vial and diluted with an aqueous mixture of 1.25% (v/v) ACTIROB® B esterified rapeseed oil (Bayer Crop Science, Research Triangle Park, N.C., USA) or MSO® Concentrate with LECI-TECH® methylated soybean oil (Loveland Products, Loveland, Colo., USA) to obtain concentrated stock solutions at the highest application rate for each herbicide, based upon a 12 milliliter (mL) application volume at a rate of 187 liters per hectare (L/ha). The concentrated stock solutions were further diluted with an aqueous mixture of 1.25% v/v ACTIROB® B or MSO® Concentrate with LECI-TECH® to obtain stock solutions at reduced application rates for each herbicide. Spray solutions of the herbicide combinations (Compound A or Compound B plus PDS inhibitor herbicide) were prepared by adding weighed amounts or aliquots of the PDS inhibitor herbicide to the stock solutions of Compound A or Compound B to form 12-mL spray solutions in two- or three-way combinations.\n(§3) The spray solutions were applied to the plant material with an overhead Mandel track sprayer equipped with 8002E nozzles calibrated to deliver 187 L/ha over an application area of 0.503 square meters (m^2) at a spray height of 18 inches ([…] centimeters (cm)) above the average plant canopy. Control plants were sprayed in the same manner with the solvent blank. All pyridine carboxylate herbicide (component a) application rates are given as “g ae/ha” and all PDS inhibitor herbicide (component b) application rates are given as “g ai/ha.”\n(§4) The treated plants and control plants were placed in a greenhouse as described above and watered by sub-irrigation to prevent wash-off of the test compounds. After 20-22 d, the condition of the test plants as compared with that of the control plants was determined visually and scored on a scale of 0 to 100 percent where 0 corresponds to no injury and 100 corresponds to complete kill."}, "[2]": {"system": "barnyardgrass (ECHCG, Echinochloa crus-galli)", "settings": "Table 4", "description": "as §1, §2, §3, §4"}, "[3]": {"system": "common lambsquarters (CHEAL, Chenopodium album L.)", "settings": "for visual injury: Table 1", "description": "as §1, §2, §3, §4"}, "[4]": {"system": "common rice (ORYSA, Oryza sativa)", "settings": "Table 4", "description": "as §1, §2, §3, §4"}, "[5]": {"system": "common sunflower (HELAN, Helianthus annuus)", "description": "as §1, §2, §3, §4"}, "[6]": {"system": "ivyleaf morningglory (IPOHE, Ipomoea hederacea)", "description": "as §1, §2, §3, §4"}, "[7]": {"system": "kochia (KCHSC, Kochia scoparia)", "settings": "for visual injury: Table 1", "description": "as §1, §2, §3, §4"}, "[8]": {"system": "soybean (GLXMA=Glycine max)", "settings": "Table 4", "description": "as §1, §2, §3, §4"}, "[9]": {"system": "velvetleaf (ABUTH, Abutilon theophrasti)", "description": "as §1, §2, §3, §4"}, "[10]": {"system": "wild chamomile (MATCH, Matricaria chamomilla)", "settings": "for visual injury: Table 1", "description": "as §1, §2, §3, §4"}, "[11]": {"system": "winter rape (BRSNW, Brassica napus)", "settings": "for visual injury: Table 1", "description": "as §1, §2, §3, §4"}}, "data": [{"compound": "N#CCOC(=O)c1nc(-c2ccc3cc[nH]c3c2F)c(F)c(N)c1Cl", "note": "[Compound A, cyanomethyl 4-amino-3-chloro-5-fluoro-6-(7-fluoro-1H-indol-6-yl)pyridine-2-carboxylate]", "values": [{"measurement": "visual injury", "setting": "[1]; 7.5 g/ha", "value": 60, "unit": "%"}, {"measurement": "visual injury Obs", "setting": "[1]; 7.5 g/ha, Table 2", "value": 45, "unit": "%"}, {"measurement": "visual injury Obs", "setting": "[1]; 7.5 g/ha, Table 3", "value": 38, "unit": "%"}, {"measurement": "visual injury Obs", "setting": "[1]; 7.5 g/ha, Table 8", "value": 55, "unit": "%"}, {"measurement": "visual injury", "setting": "[1]; 10 g/ha", "value": 63, "unit": "%"}, {"measurement": "visual injury Obs", "setting": "[1]; 10 g/ha, Table 2", "value": 60, "unit": "%"}, {"measurement": "visual injury Obs", "setting": "[1]; 10 g/ha, Table 3", "value": 63, "unit": "%"}, {"measurement": "visual injury Obs", "setting": "[1]; 10 g/ha, Table 8", "value": 58, "unit": "%"}, {"measurement": "visual injury Obs", "setting": "[1]; 15 g/ha, Table 8", "value": 65, "unit": "%"}, {"measurement": "visual injury Obs", "setting": "[2]; 7.5 g/ha", "value": 73, "unit": "%"}, {"measurement": "visual injury Obs", "setting": "[2]; 10 g/ha", "value": 78, "unit": "%"}, {"measurement": "visual injury", "setting": "[3]; 7.5 g/ha", "value": 88, "unit": "%"}, {"measurement": "visual injury Obs", "setting": "[3]; 7.5 g/ha, Table 2", "value": 70, "unit": "%"}, {"measurement": "visual injury Obs", "setting": "[3]; 7.5 g/ha, Table 3", "value": 60, "unit": "%"}, {"measurement": "visual injury Obs", "setting": "[3]; 7.5 g/ha, Table 4", "value": 97, "unit": "%"}, {"measurement": "visual injury Obs", "setting": "[3]; 7.5 g/ha, Table 7", "value": 70, "unit": "%"}, {"measurement": "visual injury Obs", "setting": "[3]; 7.5 g/ha, Table 8", "value": 70, "unit": "%"}, {"measurement": "visual injury", "setting": "[3]; 10 g/ha", "value": 93, "unit": "%"}, {"measurement": "visual injury Obs", "setting": "[3]; 10 g/ha, Table 2", "value": 83, "unit": "%"}, {"measurement": "visual injury Obs", "setting": "[3]; 10 g/ha, Table 3", "value": 90, "unit": "%"}, {"measurement": "visual injury Obs", "setting": "[3]; 10 g/ha, Table 4", "value": 93, "unit": "%"}, {"measurement": "visual injury Obs", "setting": "[3]; 10 g/ha, Table 7", "value": 78, "unit": "%"}, {"measurement": "visual injury Obs", "setting": "[3]; 10 g/ha, Table 8", "value": 78, "unit": "%"}, {"measurement": "visual injury Obs", "setting": "[3]; 15 g/ha, Table 8", "value": 83, "unit": "%"}, {"measurement": "visual injury Obs", "setting": "[4]; 7.5 g/ha", "value": 13, "unit": "%"}, {"measurement": "visual injury Obs", "setting": "[4]; 10 g/ha", "value": 10, "unit": "%"}, {"measurement": "visual injury Obs", "setting": "[5]; 7.5 g/ha, Table 5", "value": 83, "unit": "%"}, {"measurement": "visual injury Obs", "setting": "[5]; 7.5 g/ha, Table 6", "value": 83, "unit": "%"}, {"measurement": "visual injury Obs", "setting": "[5]; 10 g/ha, Table 5", "value": 88, "unit": "%"}, {"measurement": "visual injury Obs", "setting": "[5]; 10 g/ha, Table 6", "value": 88, "unit": "%"}, {"measurement": "visual injury Obs", "setting": "[6]; 7.5 g/ha, Table 4", "value": 3, "unit": "%"}, {"measurement": "visual injury Obs", "setting": "[6]; 7.5 g/ha, Table 5", "value": 5, "unit": "%"}, {"measurement": "visual injury Obs", "setting": "[6]; 7.5 g/ha, Table 6", "value": 5, "unit": "%"}, {"measurement": "visual injury Obs", "setting": "[6]; 10 g/ha, Table 4", "value": 8, "unit": "%"}, {"measurement": "visual injury Obs", "setting": "[6]; 10 g/ha, Table 5", "value": 0, "unit": "%"}, {"measurement": "visual injury Obs", "setting": "[6]; 10 g/ha, Table 6", "value": 0, "unit": "%"}, {"measurement": "visual injury", "setting": "[7]; 7.5 g/ha", "value": 63, "unit": "%"}, {"measurement": "visual injury Obs", "setting": "[7]; 7.5 g/ha, Table 2", "value": 50, "unit": "%"}, {"measurement": "visual injury Obs", "setting": "[7]; 7.5 g/ha, Table 5", "value": 63, "unit": "%"}, {"measurement": "visual injury Obs", "setting": "[7]; 7.5 g/ha, Table 6", "value": 63, "unit": "%"}, {"measurement": "visual injury Obs", "setting": "[7]; 7.5 g/ha, Table 7", "value": 65, "unit": "%"}, {"measurement": "visual injury Obs", "setting": "[7]; 7.5 g/ha, Table 8", "value": 70, "unit": "%"}, {"measurement": "visual injury", "setting": "[7]; 10 g/ha", "value": 63, "unit": "%"}, {"measurement": "visual injury Obs", "setting": "[7]; 10 g/ha, Table 2", "value": 58, "unit": "%"}, {"measurement": "visual injury Obs", "setting": "[7]; 10 g/ha, Table 5", "value": 65, "unit": "%"}, {"measurement": "visual injury Obs", "setting": "[7]; 10 g/ha, Table 6", "value": 65, "unit": "%"}, {"measurement": "visual injury Obs", "setting": "[7]; 10 g/ha, Table 7", "value": 70, "unit": "%"}, {"measurement": "visual injury Obs", "setting": "[7]; 10 g/ha, Table 8", "value": 70, "unit": "%"}, {"measurement": "visual injury Obs", "setting": "[7]; 15 g/ha, Table 8", "value": 70, "unit": "%"}, {"measurement": "visual injury Obs", "setting": "[8]; 7.5 g/ha", "value": 93, "unit": "%"}, {"measurement": "visual injury Obs", "setting": "[8]; 10 g/ha", "value": 95, "unit": "%"}, {"measurement": "visual injury Obs", "setting": "[9]; 7.5 g/ha, Table 4", "value": 68, "unit": "%"}, {"measurement": "visual injury Obs", "setting": "[9]; 7.5 g/ha, Table 5", "value": 40, "unit": "%"}, {"measurement": "visual injury Obs", "setting": "[9]; 7.5 g/ha, Table 6", "value": 40, "unit": "%"}, {"measurement": "visual injury Obs", "setting": "[9]; 10 g/ha, Table 4", "value": 78, "unit": "%"}, {"measurement": "visual injury Obs", "setting": "[9]; 10 g/ha, Table 5", "value": 48, "unit": "%"}, {"measurement": "visual injury Obs", "setting": "[9]; 10 g/ha, Table 6", "value": 48, "unit": "%"}, {"measurement": "visual injury", "setting": "[10]; 7.5 g/ha", "value": 20, "unit": "%"}, {"measurement": "visual injury Obs", "setting": "[10]; 7.5 g/ha, Table 2", "value": 13, "unit": "%"}, {"measurement": "visual injury Obs", "setting": "[10]; 7.5 g/ha, Table 3", "value": 0, "unit": "%"}, {"measurement": "visual injury Obs", "setting": "[10]; 7.5 g/ha, Table 7", "value": 18, "unit": "%"}, {"measurement": "visual injury Obs", "setting": "[10]; 7.5 g/ha, Table 8", "value": 8, "unit": "%"}, {"measurement": "visual injury", "setting": "[10]; 10 g/ha", "value": 30, "unit": "%"}, {"measurement": "visual injury Obs", "setting": "[10]; 10 g/ha, Table 2", "value": 15, "unit": "%"}, {"measurement": "visual injury Obs", "setting": "[10]; 10 g/ha, Table 3", "value": 33, "unit": "%"}, {"measurement": "visual injury Obs", "setting": "[10]; 10 g/ha, Table 7", "value": 30, "unit": "%"}, {"measurement": "visual injury Obs", "setting": "[10]; 10 g/ha, Table 8", "value": 15, "unit": "%"}, {"measurement": "visual injury Obs", "setting": "[10]; 15 g/ha, Table 8", "value": 10, "unit": "%"}, {"measurement": "visual injury", "setting": "[11]; 7.5 g/ha", "value": 35, "unit": "%"}, {"measurement": "visual injury Obs", "setting": "[11]; 7.5 g/ha, Table 7", "value": 63, "unit": "%"}, {"measurement": "visual injury Obs", "setting": "[11]; 7.5 g/ha, Table 8", "value": 60, "unit": "%"}, {"measurement": "visual injury", "setting": "[11]; 10 g/ha", "value": 43, "unit": "%"}, {"measurement": "visual injury Obs", "setting": "[11]; 10 g/ha, Table 7", "value": 68, "unit": "%"}, {"measurement": "visual injury Obs", "setting": "[11]; 10 g/ha, Table 8", "value": 60, "unit": "%"}, {"measurement": "visual injury Obs", "setting": "[11]; 15 g/ha, Table 8", "value": 75, "unit": "%"}]}]}
